Laboratory results published in US9045474B2, “Compounds and compositions for mitigating tissue damage and lethality” (The Regents of the University of California, priority 2010, dated 2015).
Entries after “also recorded” stand apart in the source; their conditions may differ.

How the values were obtained:
[1] = Preliminary studies of Targeted Library analogs (DEL/Survival assay); assay type: cell-based
From the text: Analogues within at least 70% or greater similarity as defined by the Tanimoto rule of similarity are believed to have similar results as the aforementioned compounds in this application. […] Other structures within this limitation (Tanimoto rule of similarity as described and positive in DEL/Survival assay) are included. The DEL Assay, which is further described below, has established itself not only as a effective tool in carcinogenic activity detection but also as an effective methodology in establishing DNA protective properties against insults such as free radicals and ionizing radiation (see, e.g., Sobol, Z., et al., Mutation Research/Fundamental and Molecular Mechanisms of Mutagenesis, 2008. 638(1-2): p. 83-89, Hafer, K., Rivina, L., Schiestl, R H. Yeast DEL assay detects protection against radiation induced cytotoxicity and genotoxicity—adaptation of a microtiter plate version, Radiation Research, 2010, 174(6):719-26)). Thus, the DEL Assay is a reliable tool for the prediction of genotoxic and cytotoxic modulating agents. These agents also include, but are not limited to, ionizing radiation, UV radiation, environmental carcinogenesis, genetic instability, etc.
Compounds in the Targeted Library are selected as a development candidate using the Tanimoto coefficient. […]

C3H mice [2] = test: Mitigation of radiation-induced lethality in C3H mice (8Gy, LD100/30); conditions: 8Gy; for mice survived LD100/30 irradiation: 75 mg/kg at 1 hr and 25 hrs post exposure, past 30 days, first small study
Experimental: Radiomitigation studies were conduced by pre-treating C3H mice with the compounds of interest at as concentration of 75 mg/kg and at 24 hrs and 1 hr before an 8 Gy exposure. On a 5×24 mitigation treatment protocol mice were first lethally irradiated with 8 Gy and 24 hrs later received the first subcutaneous injection with the compound suspension with subsequent injections at 48, 72, 96, and 120 hrs. The concentration of the compound in the suspension was 75 mg/kg carrier with either 1N saline or phosphate buffer solution (PBS).
C3H mice in the mitigation experiment were irradiated with 8Gy and then injected with 75 mg/kg 1 hr post exposure and then again 25 hrs post exposure.

Yeast cells = test: DEL assay, antioxidant radioprotection by yeast growth phase; assay type: cell-based, Saccharomyces cerevisiae
From the text: In this study we used the DEL assay to measure gamma-ray induced DNA deletions throughout different phases of yeast culture growth. While yeast survival only differed by as much as two fold throughout the yeast growth phase, proliferating cells in lag and early exponential growth phases were ten-fold more sensitive to ionizing radiation-induced DNA deletions than cells in stationary growth. […] The ability of antioxidants L-ascorbic acid and DMSO to protect against radiation-induced DNA deletions was also measured within the different phases of yeast culture growth. […] This knowledge was used for the screening of radioprotectors.

mouse peripheral blood = tested on: mouse peripheral blood
Experimental: In this study, we examined the role of N-acetyl-L-cysteine (NAC), a clinically proven safe agent, for it's ability to protect against γ-ray-induced DNA strand breaks and/or DNA deletions in yeast and mammals. In the yeast S. cerevisiae, DNA deletions were scored by reversion to histidine prototrophy. Human lymphoblastoid cells were examined for the frequency of γ-H2AX foci formation, indicative of DNA double strand break formation. DNA strand breaks were also measured in mouse peripheral blood by the alkaline comet assay.

yeast S. cerevisiae = test: Yeast DNA deletions (reversion to histidine prototrophy) after γ-rays; assay type: cell-based, Saccharomyces cerevisiae; conditions: data not shown
[3] = tested on: Human lymphoblastoid cells; test: γ-H2AX foci formation after ionizing radiation; assay type: cell-based; conditions: data not shown
[4] = tested on: Human lymphoblastoid cells; test: Colony survival assay after ionizing radiation; assay type: cell-based; conditions: data not shown
[5] = tested on: RS112 strain of S. cerevisiae; test: Classical DEL plating assay, radioprotection at 2000Gy irradiation; assay type: cell-based, Saccharomyces cerevisiae
Experimental: All DEL assays utilize the established methodology of “recombination” (deletion of the interruption segment and consequent end joining of the adjacent sequences) of a disrupted histidine gene that renders yeast cells exposed to radiation capable of growing on media lacking this amino acid. In the classical DEL assay radiation sensitive RS112 strain of S. cerevisiae is added to the compounds of interest suspended in complete media, incubated for 2 hrs, and irradiated at 2000Gy. The cells are then plated onto full (+13) and lacking histidine (−His) agar plates. After incubation the colonies are scored and recombination events are calculated. The efficacy of the compound is evaluated as a reduced fraction of DEL recombinations in comparison to that of irradiated controls without treatment. Radioprotectors decrease the frequency of such recombination frequencies after radiation exposure.
A plasmid with an internal fragment of the HIS3 gene, which is responsible for histidine synthesis in yeast, without which cells cannot survive in media lacking histidine, has been integrated at the HIS3 locus, yielding an integrative disruption of the HIS3 gene (Schiestl, R. H., et al., Genetics, 1988. 119(2): p. 237-47). […]

mammalian cell lines = test: Therapy Bioluminescence Assay (survival following irradiation); assay type: cell-based; conditions: data not shown
C3H mice [6] = test: Toxicity experiments in C3H mice; assay type: in vivo, mouse; conditions: 150 mg/kg, 75 mg/kg and 5 mg/kg; 120 days following the injections
Experimental: Having seen no adverse effects of the chemicals alone on mammalian cell models we performed a preliminary toxicity study on a group of C3H mice. […] In a pilot reproductive toxicity study, 12, week old female mice were paired up with 6 week old male mice and checked daily for the presence of a characteristic “plug” in the female vaginal canal as an indication of mating. As soon as the mating has occurred, males were removed and the females were treated weekly with 75 mg/kg s.c. throughout the gestation period and until the pups were weaned off (8 week treatment course). After weaning, treatment of the offspring was initiated at the same 75 mg/kg s.c. weekly dose. Controls were injected s.c. on the same schedule with the carrier (1N saline). Five treated and five control females gave birth to the same average number of pups per litter (n=6) without any detectable toxicities to the other. 3 litters of each treated and control groups survived to continue the study. No pathologies, toxicities nor adverse effects were observed. There are no developmental or teratogenic deficiencies in mice, average weights (21 g) are the same in both groups also.

DEL RS112 tester strain = test: DEL assay, damage by chemical carcinogen MMS; assay type: cell-based, Saccharomyces cerevisiae; conditions: 15 uM, 1 hrs after exposure to MMS
From the text: A DEL assay, described above, is used for assessing mitigation of damage induced by chemical carcinogens by compounds of invention.
Tests in this example show administration of Yel001 and Yel002 confers reduction against chemical carcinogen Methyl methanesulfonate (MMS) in vitro.
Reduction of cytotoxicity and genotoxicity with Yel002 is p<0.007 and p<0.04 restively; p-values for Yel001 are 0.0007 (genotoxicity) and 0.1 for cytotoxicity.

DBA/2 Mice = test: Radiation-induced leukemia model; assay type: in vivo, mouse
Experimental: DBA/2 Mice (15/group) were irradiated with ^60Co (3.5 Gy, 0.6 Gy/min) to induce leukemia. One group received no drug, another group of mice were injected s.c. with Yel001 or Yel002 (25 mg/kg) with 5 injections for 5 days. Leukemogenesis was monitored for 90 days. Blood was drawn at days −1, 21, 42, and 63 to monitor for leukemia every 21 days to monitor for leukemia development using WBCs and differentials. This leukemia model takes advantage of non-targeted radiation effects, which are important to the carcinogenic process. This model has a shorter latency period to gamma radiation-induced leukemia (latency to 50% leukemic population: 107 days) than other murine leukemia models such as CBA mouse (399 days: 50% leukemic population). DBA/2 mice were irradiated with 3.5 Gy (^60Co 0.60 Gy/min) and then injected intravenously with (5×10^6) FDC-P1 cells. Animals were then monitored 5×/weekly for 10 weeks-post-injection and then daily after 10 weeks-post-injection until leukemia development and/or euthanasia. After the animal has been determined to be leukemic using hematological parameters, it is euthanized and a necropsy is conducted to definitively determine a conclusive diagnosis of leukemia. Control animals not developing leukemia are assessed at 270 days post experiment initiation. At that time they are euthanized and necropsied.

RS112 cells = test: DEL plating assay for mitigation of radiation damage (treatment after 2000Gy); assay type: cell-based, Saccharomyces cerevisiae
Experimental: The mitigation protocol is based on the same DEL assay principle of recombination of the disrupted HIS3 gene that renders the cells capable of synthesizing its own histidine following radiation exposure. To establish mitigation properties of the compounds in question, the classical DEL protocol is modified as follows: first the RS112 cells are irradiated with 2000Gy and then the treatments are administered at 0 min, 10 min, 20 min, 30 min, and 60 min, incubated for 2 hrs, and plated on +13 and −His agar plates. The efficacy of the compounds is scored the same way as in the classical DEL protocol. Yel1 and Yel2 analogues that are efficacious in the HTS and classical DEL assay are analyzed for mitigation activity using this modified DEL protocol.
Six confirmed hits were also tested for radioprotection with the compounds being presented to irradiated cells at different time points following irradiation exposure. The DEL Plating Assay was used with a radiation sensitive Saccharomyces cerevisiae RS112 strain.
The general DEL Assay is described above. In this example, DEL assay is a genetic construct in the Saccharomyces cerevisiae RS112 strain where a plasmid with an internal fragment of the HIS3 gene has been integrated at the HIS3 locus, yielding an integrative disruption of the HIS3 gene. […] The construct reverts to HIS3+ by recombination between the two his3 deletion alleles which is, in 99% of the cases, associated with the deletion of the entire 6 kilobasepairs of DNA comprising the integrated plasmid. DEL events are inducible with a variety of DNA-assaulting agents: radiation, smoking, UV exposure, 92% of the known carcinogens, etc.
RS112 cells irradiated with 2000Gy show an induction of the deletion frequencies (DEL events) and roughly a 90% killing.

[7] = tested on: yeast DEL tester strain RS112; test: DEL assay, UV radiation-induced damage; assay type: cell-based, Saccharomyces cerevisiae
Experimental: DEL tester strain was irradiated with 4000 J/m^2 in the ultraviolet range and treated with Yel001 or Yel002 at 60 minutes at the concentration of 15 uM.

[8] = lag and early exponential growth phases
[9] = non-dividing cells in stationary phase

## Cc1sc(NC(=O)CN(Cc2ccccc2)C(=O)c2ccccc2)c(C(N)=O)c1C [2-[2-(Benzoyl-benzyl-amino)-acetylamino]-4,5-dimethyl-thiophene-3-carboxylic acid amide]
[1]
  activity in preliminary studies: shown activity

## NCCCNCCSP(=O)(O)O [Amifostine, reference compound]
C3H mice [2]
  mice survived LD100/30 irradiation: 33%

## C[S+](C)[O-] [DMSO]
Yeast cells; [8]
  protection against radiation-induced DNA deletions: protected
Yeast cells; [9]
  protection against radiation-induced DNA deletions: could not be protected

## O=C1O[C@H]([C@@H](O)CO)C(O)=C1O [L-ascorbic acid]
Yeast cells; [8]
  protection against radiation-induced DNA deletions: protected
Yeast cells; [9]
  protection against radiation-induced DNA deletions: could not be protected

## CC(=O)N[C@@H](CS)C(=O)O [NAC, N-acetyl-L-cysteine]
Mouse peripheral blood; mouse, in vivo
  genotoxicity of treatment alone: not genotoxic
Mouse peripheral blood; via drinking water, whole-body irradiated with 1 Gy
  protection against DNA strand breaks: fully protected against DNA strand breaks
Yeast S. cerevisiae
  frequency of IR-induced DNA deletions: reduced the frequency of IR-induced DNA deletions
  protection against cell death: did not protect against cell death
[3]
  γ-H2AX foci formation: reduced γ-H2AX foci formation
[4]
  protective effect in colony survival: no protective effect

## Cc1sc(NC(=O)CN(Cc2ccc(F)cc2)C(=O)c2ccccc2)c(C(N)=O)c1C [Yel001]
[5]
  radioprotector characteristics (genotoxicity and cytotoxicity protection): radioprotector characteristics
Mammalian cell lines
  survival following irradiation as compared to that of controls: 130%
C3H mice [2]; 75 mg/kg 1.25 protocol
  mitigation efficacy: did show therapeutic benefit
C3H mice [2]; 75 mg/kg 1.25 protocol, listed as Yel1
  mitigation efficacy: show activity
C3H mice [2]
  mice survived LD100/30 irradiation: 67%
C3H mice [2]; 75 mg/kg s.c. 5×24 protocol
  mitigation efficacy: did not exhibit significant efficacy
C3H mice [2]; 75 mg/kg s.c. 5×24 protocol, listed as Yel1
  mitigation efficacy: also showed efficacy
C3H mice [2]; both protocols, 252 days post irradiation
  percentage of survivors: 30%
C3H mice [2]; both protocols, +292 days
  animals still alive beyond 30 day window: 30%
C3H mice [6]
  adverse physiological or behavioral effects: did not show any adverse physiological nor behavioral adverse effects
DEL RS112 tester strain
  genotoxicity and cytotoxicity by MMS: reduction in genotoxicity and cytotoxicity; also recorded: can be mitigated
DBA/2 Mice; 3.5 Gy, 25 mg/kg s.c., no drug also within 42 days
  first development of leukemia: 42 days
DBA/2 Mice; Day 94, 3.5 Gy, 25 mg/kg s.c. 5 injections, irradiated controls 30%
  mice exhibiting leukemia: 20%
DBA/2 Mice; Day 270, irradiated population 90%
  leukemia frequency: 50%
DBA/2 Mice; FIG. 17
  latency to leukemia development: increased latency to leukemia development
DBA/2 Mice; FIG. 18
  frequency of radiation induced and/or spontaneous cancer: effective for reducing the frequency of radiation induced and spontaneous cancer
RS112 cells; compound added 0-60 min after 2000Gy, p<0.05
  reduction of DEL events (gene reversion frequency): decreased DEL frequencies; also recorded: significant reduction of genetic instability
RS112 cells; compound added at time points after 2000Gy, significant only at 60 min
  mitigation of radiation cytotoxicity (survival): increased survival fractions; also recorded: mitigation of radiation cytotoxicity has been observed
[7]; 15 uM, P<0.05
  UV genotoxicity and cytotoxicity: reduces cell death and genotoxicity; also recorded: significantly reduces genotoxicity and cytotoxicity
[7]; 4000 J/m^2 UV, 15 uM at 60 minutes, untreated 0.64%
  survival: 2.91%
